Test results from US6703421B1, “Methods of using phenylmethylbenzoquinone and hydroquinone compounds for treatment of myocarditis, dilated cardiomyopathy and heart failure” (Daiichi Suntory Pharma Co., Ltd., priority 1999, dated 2004).

System: NF-κB
Experiment: NF-κB luciferase reporter assay in A549/NF-κBLuc cells
Type: cell-based, human
Details: A549/NF-κBLuc, IL-1β (1 ng/ml) for 4 hours, luciferase activity; read-out: IC50 (μM) IL-1 stimulation
Method: Using lipofectamine (Lifetech Oriental K. K., Tokyo) according to the conventional method, human lung cancer cell line A549 cells (ATCC catalog no. CCL185), which are known to express hiNOS by cytokine stimulation, were co-transfected with pNFκB-Luc, which are plasmid controlled by a NF-κB binding consensus sequence, and pSV2neo (Clontech, U.S.A.), and then A549/NF-κBLuc, the cell that has stably introduced pNFκB-Luc, was selected by adding G418 sulfate (1 mg/ml, Lifetech Oriental K. K.) to the culture medium.
The luciferase activity was measured using the Luciferase Assay System (Promega, U.S.A.).

| IC50 | Compound |
| --- | --- |
| 0.051 µM | 2-[5-Methylthieno[2,3-d]pyrimidine-4-yl]aminoindan-5-carboxylic Acid Morpholinamide [Prod. Ex. 221] |

Same assay, conditions: A549/NF-κBLuc, TNF-α (500 ng/ml) for 4 hours, luciferase activity; read-out: IC50 (μM) TNF stimulation

| IC50 | Compound |
| --- | --- |
| 0.089 µM | 2-[5-Methylthieno[2,3-d]pyrimidine-4-yl]aminoindan-5-carboxylic Acid Morpholinamide [Prod. Ex. 221] |

Same assay, conditions: Homo sapiens; A549/NF-κBLuc, IL-1β (1 ng/ml) for 4 hours, luciferase activity; read-out: IC50 (μM) IL-1 stimulation

| Compound | IC50 |
| --- | --- |
| COC1=C(OC)C(=O)C(Cc2ccc(CCC(=O)N3CCOCC3)cc2)=C(C)C1=O [Prod. Ex. 3, N-[3-[4-(5,6-Dimethoxy-3-methyl-1,4-benzoquinon-2-ylmethyl)phenyl]propionyl]morpholine] | 29 µM |
| COC1=C(OC)C(=O)C(Cc2ccc(C(=O)NC(C)C)cc2)=C(C)C1=O [Prod. Ex. 23, N-[4-(5,6-Dimethoxy-3-methyl-1,4-benzoquinon-2-ylmethyl)benzoyl]isopropylamine] | 42 µM |
| COC1=C(OC)C(=O)C(Cc2ccc(CCCC(=O)N3CCOCC3)cc2)=C(C)C1=O [Prod. Ex. 27, N-[4-[4-(5,6-Dimethoxy-3-methyl-1,4-benzoquinon-2-ylmethyl)phenyl]butanoyl]morpholine] | 15 µM |
| COC1=C(OC)C(=O)C(Cc2ccc(CCCC(=O)NC(C)C)cc2)=C(C)C1=O [Prod. Ex. 30, N-[4-[4-(5,6-Dimethoxy-3-methyl-1,4-benzoquinon-2-ylmethyl)phenyl]butanoyl]isopropylamine] | 14 µM |
| COC1=C(OC)C(=O)C(Cc2cccc(CCC(=O)N3CCCCC3)c2)=C(C)C1=O [Prod. Ex. 32, N-[3-[3-(5,6-Dimethoxy-3-methyl-1,4-benzoquinon-2-ylmethyl)phenyl]propionyl]piperidine] | 24 µM |
| COC1=C(OC)C(=O)C(Cc2cccc(CCC(=O)N3CCSCC3)c2)=C(C)C1=O [Prod. Ex. 33, N-[3-[3-(5,6-Dimethoxy-3-methyl-1,4-benzoquinon-2-ylmethyl)phenyl]propionyl]thiomorpholine] | 28 µM |
| COC1=C(OC)C(=O)C(Cc2cccc(CCC(=O)N3CCOCC3)c2)=C(C)C1=O [Prod. Ex. 34, N-[3-[3-(5,6-Dimethoxy-3-methyl-1,4-benzoquinon-2-ylmethyl)phenyl]propionyl]morpholine] | 29 µM |
| COC1=C(OC)C(=O)C(Cc2cccc(/C=C/C(=O)N3CCCCC3)c2)=C(C)C1=O [Prod. Ex. 37, N-[3-[3-(5,6-Dimethoxy-3-methyl-1,4-benzoquinon-2-ylmethyl)phenyl]acryloyl]piperidine] | 49 µM |
| COC1=C(OC)C(=O)C(Cc2cccc(/C=C/C(=O)NC(C)C)c2)=C(C)C1=O [Prod. Ex. 39, N-[3-[3-(5,6-Dimethoxy-3-methyl-1,4-benzoquinon-2-ylmethyl)phenyl]acryloyl]isopropylamine] | 39 µM |
| COC1=C(OC)C(=O)C(Cc2cccc(C(=O)NC(C)C)c2)=C(C)C1=O [Prod. Ex. 42, N-[3-(5,6-Dimethoxy-3-methyl-1,4-benzoquinon-2-ylmethyl)benzoyl]isopropylamine] | 22 µM |
| COC1=C(OC)C(=O)C(Cc2cccc(C(=O)N3CCCCC3)c2)=C(C)C1=O [Prod. Ex. 43, N-[3-(5,6-Dimethoxy-3-methyl-1,4-benzoquinon-2-ylmethyl)benzoyl]piperidine] | 21 µM |
| COC1=C(OC)C(=O)C(Cc2cccc(C(=O)N3CCSCC3)c2)=C(C)C1=O [Prod. Ex. 45, N-[3-(5,6-Dimethoxy-3-methyl-1,4-benzoquinon-2-ylmethyl)benzoyl]thiomorpholine] | 17 µM |
| CC1=C(C)C(=O)C(Cc2ccc(CCC(=O)NC(C)C)cc2)=C(C)C1=O [Prod. Ex. 46] | 17 µM |
| CC1=C(C)C(=O)C(Cc2ccc(CCC(=O)N3CCCCC3)cc2)=C(C)C1=O [Prod. Ex. 47, N-[3-[4-(3,5,6-Trimethyl-1,4-benzoquinon-2-ylmethyl)phenyl]propionyl]piperidine] | 21 µM |
| CC1=C(C)C(=O)C(Cc2ccc(CCC(=O)N3CCOCC3)cc2)=C(C)C1=O [Prod. Ex. 48, N-[3-[4-(3,5,6-Trimethyl-1,4-benzoquinon-2-ylmethyl)phenyl]propionyl]morpholine] | 18 µM |
| CC1=C(C)C(=O)C(Cc2cccc(CCC(=O)NC(C)C)c2)=C(C)C1=O [Prod. Ex. 49, N-[3-[3-(3,5,6-Trimethyl-1,4-benzoquinon-2-ylmethyl)phenyl]propionyl]isopropylamine] | 28 µM |
| CC1=C(C)C(=O)C(Cc2cccc(CCC(=O)N3CCCCC3)c2)=C(C)C1=O [Prod. Ex. 50, N-[3-[3-(3,5,6-Trimethyl-1,4-benzoquinon-2-ylmethyl)phenyl]propionyl]piperidine] | 16 µM |
| CC1=C(C)C(=O)C(Cc2cccc(CCC(=O)N3CCOCC3)c2)=C(C)C1=O [Prod. Ex. 51, N-[3-[3-(3,5,6-Trimethyl-1,4-benzoquinon-2-ylmethyl)phenyl]propionyl]morpholine] | 18 µM |
| COC1=C(OC)C(=O)C(Cc2cccc(CC(=O)N3CCOCC3)c2)=C(C)C1=O [Prod. Ex. 60, N-[3-(5,6-Dimethoxy-3-methyl-1,4-benzoquinon-2-ylmethyl)phenylacetyl]morpholine] | 18 µM |
| COC1=C(OC)C(=O)C(Cc2cccc(CC(=O)NC(C)C)c2)=C(C)C1=O [Prod. Ex. 61, N-[3-(5,6-Dimethoxy-3-methyl-1,4-benzoquinon-2-ylmethyl)phenylacetyl]isopropylamine] | 24 µM |
| COC1=C(OC)C(=O)C(Cc2ccccc2CCC(=O)N2CCCCC2)=C(C)C1=O [Prod. Ex. 70, N-[3-[2-(5,6-Dimethoxy-3-methyl-1,4-benzoquinon-2-ylmethyl)phenyl]propionyl]piperidine] | 44 µM |
| COC1=C(OC)C(=O)C(Cc2ccccc2CCC(=O)N2CCOCC2)=C(C)C1=O [Prod. Ex. 71, N-[3-[2-(5,6-Dimethoxy-3-methyl-1,4-benzoquinon-2-ylmethyl)phenyl]propionyl]morpholine] | 56 µM |
| COC1=C(OC)C(=O)C(Cc2ccccc2CCC(=O)N2CCSCC2)=C(C)C1=O [Prod. Ex. 72, N-[3-[2-(5,6-dimethoxy-3-methyl-1,4-benzoquinon-2-ylmethyl)phenyl]propionyl]thiomorpholine] | 42 µM |

The next lines start with the values.

| IC50 | Compound |
| --- | --- |
| 3 µM | COC1=C(OC)C(=O)C(Cc2ccc(CCC(=O)NC(C)C)cc2)=C(C)C1=O [Prod. Ex. 9, N-[3-[4-(5,6-Dimethoxy-3-methyl-1,4-benzoquinon-2-ylmethyl)phenyl]propionyl]isopropylamine] |
| 14 µM | COC1=C(OC)C(=O)C(Cc2ccc(CCCC(=O)N3CCSCC3)cc2)=C(C)C1=O [Prod. Ex. 28, N-[4-[4-(5,6-Dimethoxy-3-methyl-1,4-benzoquinon-2-ylmethyl)phenyl]butanoyl]thiomorpholine] |
| 13 µM | COC1=C(OC)C(=O)C(Cc2ccc(CCCC(=O)N3CCCCC3)cc2)=C(C)C1=O [Prod. Ex. 29, N-[4-[4-(5,6-Dimethoxy-3-methyl-1,4-benzoquinon-2-ylmethyl)phenyl]butanoyl]piperidine] |
| 8 µM | COC1=C(OC)C(=O)C(Cc2cccc(CCC(=O)NC(C)C)c2)=C(C)C1=O [Prod. Ex. 35, N-[3-[3-(5,6-Dimethoxy-3-methyl-1,4-benzoquinon-2-ylmethyl)phenyl]propionyl]isopropylamine] |
| 8 µM | COC1=C(OC)C(=O)C(Cc2ccc(CC(=O)N3CCOCC3)cc2)=C(C)C1=O [Prod. Ex. 53, N-[4-(5,6-Dimethoxy-3-methyl-1,4-benzoquinon-2-ylmethyl)phenylacetyl]morpholine] |
| 5 µM | COC1=C(OC)C(=O)C(Cc2ccc(CC(=O)N3CCCCC3)cc2)=C(C)C1=O [Prod. Ex. 54, N-[4-(5,6-Dimethoxy-3-methyl-1,4-benzoquinon-2-ylmethyl)phenylacetyl]piperidine] |
| 7 µM | COC1=C(OC)C(=O)C(Cc2ccc(CC(=O)N3CCSCC3)cc2)=C(C)C1=O [Prod. Ex. 55, N-[4-(5,6-Dimethoxy-3-methyl-1,4-benzoquinon-2-ylmethyl)phenylacetyl]thiomorpholine] |
| 5 µM | COC1=C(OC)C(=O)C(Cc2ccc(CC(=O)NC(C)C)cc2)=C(C)C1=O [Prod. Ex. 56, N-[4-(5,6-Dimethoxy-3-methyl-1,4-benzoquinon-2-ylmethyl)phenylacetyl]isopropylamine] |
| 13 µM | COC1=C(OC)C(=O)C(Cc2cccc(CC(=O)N3CCCCC3)c2)=C(C)C1=O [Prod. Ex. 58, N-[3-(5,6-Dimethoxy-3-methyl-1,4-benzoquinon-2-ylmethyl)phenylacetyl]piperidine] |
| 12 µM | COC1=C(OC)C(=O)C(Cc2cccc(CC(=O)N3CCSCC3)c2)=C(C)C1=O [Prod. Ex. 59, N-[3-(5,6-Dimethoxy-3-methyl-1,4-benzoquinon-2-ylmethyl)phenylacetyl]thiomorpholine] |
| 2 µM | COC1=C(OC)C(=O)C(Cc2cccc(CCCC(=O)N3CCCCC3)c2)=C(C)C1=O [Prod. Ex. 63, N-[4-[3-(5,6-Dimethoxy-3-methyl-1,4-benzoquinon-2-ylmethyl)phenyl]butanoyl]piperidine] |
| 5 µM | COC1=C(OC)C(=O)C(Cc2cccc(CCCC(=O)N3CCSCC3)c2)=C(C)C1=O [Prod. Ex. 64, N-[4-[3-(5,6-Dimethoxy-3-methyl-1,4-benzoquinon-2-ylmethyl)phenyl]butanoyl]thiomorpholine] |
| 12 µM | COC1=C(OC)C(=O)C(Cc2cccc(CCCC(=O)N3CCOCC3)c2)=C(C)C1=O [Prod. Ex. 65, N-[4-[3-(5,6-Dimethoxy-3-methyl-1,4-benzoquinon-2-ylmethyl)phenyl]butanoyl]morpholine] |
| 3 µM | COC1=C(OC)C(=O)C(Cc2cccc(CCCC(=O)NC(C)C)c2)=C(C)C1=O [Prod. Ex. 66, N-[4-[3-(5,6-Dimethoxy-3-methyl-1,4-benzoquinon-2-ylmethyl)phenyl]butanoyl]isopropylamine] |

Same assay, conditions: Homo sapiens; A549/NF-κBLuc, TNF-α (500 ng/ml) for 4 hours, luciferase activity; read-out: IC50 (μM) TNF stimulation

| IC50 | Compound |
| --- | --- |
| 4 µM | COC1=C(OC)C(=O)C(Cc2ccc(CCC(=O)NC(C)C)cc2)=C(C)C1=O [Prod. Ex. 9, N-[3-[4-(5,6-Dimethoxy-3-methyl-1,4-benzoquinon-2-ylmethyl)phenyl]propionyl]isopropylamine] |
